These are literature values, as cited in patent US5696156A, “Triterpene derivatives with immunosuppressant activity” (Merck & Co. Inc., priority 1996, dated 1997).

One may read the IC50 as the concentration needed to halve the response being measured.

In this data set the test system is Kv 1.3 channels. Conditions: stated for the reference blocker that defines the efflux window.

As to “margatoxin (TIINVKCTSPKQCLPPCKAQFGQSAGAKCMNGKCKCYPH; UniProt P40755 1-39, looked up)”, the IC50 is 0.1 nM.
